From patent US9139532B2, “Pyrazolyl guanidine F1F0-atpase inhibitors and therapeutic uses thereof” (Lycera Corporation, priority 2010, dated 2015)
Like-named read-outs stand apart in the source and are kept apart here.

What was measured:
[1] = system: Ramos cells; assay: Cytotoxicity in Ramos cells; type: cell-based; settings: cytotoxicity in Ramos cells, read-out: Ramos Cell EC50
[2] = molecular target: T1, F1F0-ATPase (Bos taurus, UniProt P13621); assay: Inhibition of F1F0-ATPase activity in synthesizing ATP; type: biochemical; settings: inhibition of ATP synthesis by F1F0-ATPase; read-out: ATP Syn IC50
T1 construct: from tissue

Row | Compound | IC50 [2] | EC50 ([1]; Homo sapiens) | EC50 [1]
1 | O=C(/N=C(\Nc1cc(C(F)(F)F)n[nH]1)NC1CCOCC1)c1ccc(Cl)c(F)c1 [Compound A-118] | < 10 µM | < 10 µM | 
2 | O=C(/N=C(\Nc1cc(C(F)(F)F)n[nH]1)NC1CCCOC1)c1ccc(Cl)c(F)c1 (centres unmarked) [Compound A-119] | < 10 µM | < 10 µM | 
3 | O=C(/N=C(/Nc1cc(C(F)(F)F)n[nH]1)NC1CCS(=O)(=O)C1)c1ccc(Cl)c(F)c1 (centres unmarked) [Compound A-121] | < 10 µM | > 10 µM | 
4 | CCC(C)(C)N/C(=N/C(=O)c1ccc(Cl)cc1)Nc1cc(C(F)(F)F)[nH]n1 [Compound A-123] | < 10 µM | < 10 µM | 
5 | O=C(/N=C(\Nc1cc(C(F)(F)F)[nH]n1)NC1CCOCC1)c1ccc(Cl)cc1 [Compound A-124] | < 10 µM | > 10 µM | 
6 | CC(C)(C)N/C(=N/C(=O)c1cccc(Cl)c1)Nc1cc(-c2cccc(Cl)c2)[nH]n1 [Compound A-129] | < 10 µM |  | < 10 µM
7 | CC(C)(C)NC(=NC(=O)c1cccc(Cl)c1)Nc1cc(-c2ccc(Cl)cc2)n[nH]1 [Compound A-130] | < 10 µM | < 10 µM | 
8 | CC(C)(C)NC(=NC(=O)c1ccc(Cl)cc1)Nc1cc(-c2ccc(Cl)cc2)n[nH]1 [Compound A-132] | < 10 µM | < 10 µM | 
9 | CC(C)(C)NC(=NC(=O)c1cccc(F)c1)Nc1cc(-c2ccc(Cl)cc2)n[nH]1 [Compound A-133] | < 10 µM | < 10 µM | 
10 | CC(C)(C)N/C(=N/C(=O)c1ccc(F)cc1)Nc1cc(-c2cccc(Cl)c2)[nH]n1 [Compound A-134] | < 10 µM |  | < 10 µM
11 | CC(C)(C)NC(=NC(=O)c1ccc(F)cc1)Nc1cc(-c2ccc(Cl)cc2)n[nH]1 [Compound A-135] | < 10 µM | < 10 µM | 
12 | CC(C)(C)N/C(=N/C(=O)c1ccc(F)c(F)c1)Nc1cc(-c2ccc(Cl)cc2)[nH]n1 [Compound A-137] | < 10 µM |  | < 10 µM
13 | CC(C)(C)N/C(=N/C(=O)c1ccc(C(F)(F)F)cc1)Nc1cc(-c2ccc(Cl)cc2)[nH]n1 [Compound A-138] | < 10 µM |  | < 10 µM
14 | O=C(N=C(Nc1cc(-c2ccc(F)cc2)n[nH]1)NC1CCOCC1)c1ccc(Cl)c(F)c1 [Compound A-139] | > 10 µM | > 10 µM | 
15 | O=C(/N=C(\Nc1cc(-c2ccccc2)[nH]n1)NC1CCOCC1)c1ccc(Cl)c(F)c1 [Compound A-140] | > 10 µM |  | > 10 µM
16 | CC(C)(C)N/C(=N/C(=O)c1ccc(Cl)c(F)c1)Nc1cc(-c2ccccc2)[nH]n1 [Compound A-141] | < 10 µM |  | < 10 µM
17 | O=C(/N=C(/NCc1ccc(F)cc1Cl)Nc1cc(-c2ccc(F)cc2)[nH]n1)c1ccc(Cl)c(F)c1 [Compound A-142] | < 10 µM |  | < 10 µM
18 | O=C(/N=C(/NCc1ccc(F)cc1Cl)Nc1cc(-c2ccccc2)[nH]n1)c1ccc(Cl)c(F)c1 [Compound A-143] | < 10 µM |  | < 10 µM
19 | O=C(/N=C(/Nc1cc(F)cc(Cl)c1)Nc1cc(-c2ccc(F)cc2)[nH]n1)c1ccc(Cl)c(F)c1 [Compound A-145] | < 10 µM |  | < 10 µM
20 | O=C(/N=C(/Nc1cc(F)cc(Cl)c1)Nc1cc(C2CC2)[nH]n1)c1ccc(Cl)c(F)c1 [Compound A-146] | < 10 µM |  | < 10 µM
21 | COc1ccc(-c2cc(N/C(=N\C(=O)c3ccc(Cl)c(F)c3)Nc3cc(F)cc(Cl)c3)n[nH]2)cc1 [Compound A-148] | > 10 µM |  | > 10 µM

Row | Compound | IC50 [2] | EC50 ([1]; Homo sapiens) | EC50 [1]
22 | Cc1ccc(-c2cc(N/C(=N\C(=O)c3ccc(Cl)c(F)c3)Nc3cc(F)cc(Cl)c3)n[nH]2)cc1 [Compound A-150] | < 10 µM |  | < 10 µM
23 | CC(C)(C)NC(=NC(=O)c1ccc(Cl)c(F)c1)Nc1cc(-c2ccc(F)cc2)n[nH]1 [Compound A-152] | < 10 µM | < 10 µM | 
24 | CC(C)(C)NC(=NC(=O)c1ccc(C(F)(F)F)cc1)Nc1cc(-c2ccccc2)[nH]n1 [Compound A-153] | < 10 µM | < 10 µM | 
25 | O=C(/N=C(/Nc1cc(F)cc(Cl)c1)Nc1cc(-c2ccc(F)cc2)[nH]n1)c1ccc(C(F)(F)F)cc1 [Compound A-154] | < 10 µM |  | < 10 µM
26 | Cc1cc(N/C(=N\C(=O)c2ccc(C(F)(F)F)cc2)NCC(C)(C)C)n[nH]1 [Compound A-155] | < 10 µM |  | < 10 µM
27 | CC(C)(C)N/C(=N/C(=O)c1ccc(F)c(F)c1)Nc1cc(-c2ccc(CO)cc2)[nH]n1 [Compound A-159] | < 10 µM |  | < 10 µM
28 | CCOCCCN/C(=N/C(=O)c1ccc(F)c(F)c1)Nc1[nH]nc(-c2ccc(Cl)cc2)c1F [Compound A-160] | < 10 µM |  | > 10 µM
29 | CC(C)CNC(=NC(=O)c1ccc(N2CCOCC2)nc1)Nc1cc(-c2ccc(F)cc2)n[nH]1 [Compound A-163] | < 10 µM | < 10 µM | 
30 | CC(C)(C)N/C(=N/C(=O)c1ccc(N2CCOCC2)nc1)Nc1cc(-c2ccc(F)cc2)[nH]n1 [Compound A-164] | < 10 µM |  | < 10 µM
31 | CC(C)CN/C(=N/C(=O)c1cccnc1C(F)(F)F)Nc1cc(-c2ccc(F)cc2)[nH]n1 [Compound A-166] | < 10 µM |  | < 10 µM
32 | CC(C)(C)N/C(=N/C(=O)c1cccnc1C(F)(F)F)Nc1cc(-c2ccc(F)cc2)[nH]n1 [Compound A-167] | < 10 µM |  | < 10 µM
33 | COc1cccc(C(=O)/N=C(/Nc2cc(F)cc(Cl)c2)Nc2cc(-c3ccc(Cl)cc3)[nH]n2)c1 [Compound A-168] | < 10 µM |  | < 10 µM
34 | CCC(C)N/C(=N/C(=O)c1cccc(OC)c1)Nc1cc(-c2ccc(Cl)cc2)n[nH]1 (centres unmarked) [Compound A-170] | < 10 µM | < 10 µM | 
35 | COc1cccc(C(=O)/N=C(/NCC(C)C)Nc2cc(-c3ccc(F)cc3)[nH]n2)c1 [Compound A-171] | < 10 µM |  | < 10 µM
36 | CCC(C)N/C(=N/C(=O)c1cccc(OC)c1)Nc1cc(-c2ccc(F)cc2)n[nH]1 (centres unmarked) [Compound A-172] | < 10 µM | < 10 µM | 
37 | COC(=O)Cc1ccc(N/C(=N/C(=O)c2ccc(F)cc2)Nc2cc(C(F)(F)F)n[nH]2)cc1 [Compound A-173] | < 10 µM | < 10 µM | 
38 | CCc1cc(C(=O)/N=C(\Nc2cc(-c3ccc(F)cc3)n[nH]2)NC(C)CC)ccn1 (centres unmarked) [Compound A-174] | < 10 µM | < 10 µM | 
39 | CCOCCCN/C(=N/C(=O)c1ccnc(CC)c1)Nc1cc(-c2ccc(F)cc2)[nH]n1 [Compound A-175] | < 10 µM |  | > 10 µM
40 | CCc1cc(C(=O)N=C(NCC(C)C)Nc2cc(-c3ccc(F)cc3)n[nH]2)ccn1 [Compound A-176] | < 10 µM | < 10 µM | 
41 | CCC(C)N/C(=N/C(=O)c1ccc(Cl)c(F)c1)Nc1cc(C)n[nH]1 (centres unmarked) [Compound A-178] | < 10 µM | < 10 µM | 

The next lines start with results.

Row | IC50 [2] | Compound | EC50 ([1]; Homo sapiens) | EC50 [1]
42 | < 10 µM | C[C@@H](N/C(=N\C(=O)c1ccc(Cl)c(F)c1)Nc1cc(C(F)(F)F)n[nH]1)C1CCCCC1 [Compound A-117] | < 10 µM | 
43 | < 10 µM | COCC(C)N/C(=N/C(=O)c1ccc(Cl)c(F)c1)Nc1cc(C(F)(F)F)n[nH]1 (centres unmarked) [Compound A-120] | < 10 µM | 
44 | < 10 µM | O=C(/N=C(\Nc1cc(C(F)(F)F)[nH]n1)NC1CCCC1)c1ccc(Cl)cc1 [Compound A-122] | < 10 µM | 
45 | < 10 µM | Cc1cc(N/C(=N\C(=O)c2ccc(C(F)(F)F)cc2)NC(C)(C)C)n[nH]1 [Compound A-125] |  | < 10 µM
46 | > 10 µM | Cc1ccc(-c2cc(N/C(=N\C(=O)c3ccc(F)c(F)c3)Nc3cc(F)cc(Cl)c3)n[nH]2)cc1F [Compound A-126] |  | > 10 µM
47 | < 10 µM | CC(C)NC(=NC(=O)c1cccc(C#N)c1)Nc1cc(-c2ccc(F)cc2)n[nH]1 [Compound A-127] | > 10 µM | 
48 | < 10 µM | CC(C)(C)N/C(=N/C(=O)c1cccc(C(F)(F)F)c1)Nc1cc(-c2cccc(Cl)c2)[nH]n1 [Compound A-128] |  | < 10 µM
49 | < 10 µM | CC(C)(C)NC(=NC(=O)c1ccc(Cl)cc1)Nc1cc(-c2cccc(Cl)c2)[nH]n1 [Compound A-131] | < 10 µM | 
50 | < 10 µM | CC(C)(C)N/C(=N/C(=O)c1ccc(F)c(F)c1)Nc1cc(-c2cccc(Cl)c2)[nH]n1 [Compound A-136] |  | < 10 µM
51 | < 10 µM | O=C(/N=C(/Nc1cc(F)cc(Cl)c1)Nc1cc(-c2cccs2)[nH]n1)c1ccc(Cl)c(F)c1 [Compound A-144] |  | < 10 µM
52 | < 10 µM | O=C(/N=C(/Nc1cc(F)cc(Cl)c1)Nc1cc(C2CCC2)[nH]n1)c1ccc(Cl)c(F)c1 [Compound A-147] |  | < 10 µM
53 | < 10 µM | O=C(N=C(Nc1cc(F)cc(Cl)c1)Nc1cc(-c2ccc(Cl)cc2)n[nH]1)c1ccc(Cl)c(F)c1 [Compound A-149] | < 10 µM | 
54 | < 10 µM | O=C(/N=C(/Nc1cc(F)cc(Cl)c1)Nc1cc(-c2ccccc2)[nH]n1)c1ccc(C(F)(F)F)cc1 [Compound A-151] |  | > 10 µM
55 | > 10 µM | O=C(/N=C(\Nc1cc(-c2ccc(F)cc2)[nH]n1)N1CCCC1)c1ccc(F)cc1 [Compound A-156] |  | > 10 µM
56 | > 10 µM | COc1ccccc1C(=O)/N=C(\Nc1cc(-c2ccc(F)cc2)[nH]n1)NC(C)(C)C [Compound A-157] |  | > 10 µM
57 | > 10 µM | O=C(/N=C(\Nc1cc(-c2ccc(CO)cc2)[nH]n1)NC1CCCC1)c1ccc(F)c(F)c1 [Compound A-158] |  | > 10 µM
58 | > 10 µM | CC(C)CN/C(=N/C(=O)c1ccc(F)c(F)c1)Nc1[nH]nc(-c2ccc(Cl)cc2)c1F [Compound A-161] |  | > 10 µM
59 | < 10 µM | CC(C)(C)N/C(=N/C(=O)c1ccc(F)c(F)c1)Nc1[nH]nc(-c2ccc(Cl)cc2)c1F [Compound A-162] |  | < 10 µM
60 | < 10 µM | COc1cccc(C(=O)/N=C(/NCC(C)C)Nc2cc(-c3ccc(Cl)cc3)[nH]n2)c1 [Compound A-169] |  | < 10 µM
61 | < 10 µM | CCc1cc(C(=O)/N=C(\Nc2cc(-c3ccc(F)cc3)[nH]n2)NC(C)(C)C)ccn1 [Compound A-177] |  | < 10 µM
